# Assays:
# Assay in all cases: relative viability (nuclei count vs DMSO), 5 days (fraction); higher = more cells survive
# [1] = test system: NCI-H2009
# How it was run: (§1)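 One day after seeding in 1536-well plates, lung cancer cell lines were dosed by pin tool. Dosing was either single-drug or a fixed anchor-drug dose plus five library-drug doses (not always all listed) in √10 steps. After 5 days, nuclei were stained in one fix-and-stain step and counted on 4× images, and relative viability is the nuclei count of treated wells over that of vehicle wells, given as the median of duplicate plates.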
# [2] = test system: NCI-H2170
# How it was run: as §1
# [3] = test system: NCI-H1755
# How it was run: as §1
# [4] = test system: EMC-BAC-2
# How it was run: as §1
# [5] = test system: NCI-H1651
# How it was run: as §1
# [6] = test system: H3255
# How it was run: as §1
# [7] = test system: HOP-62
# How it was run: as §1
# [8] = test system: NCI-H322M
# How it was run: as §1
# [9] = test system: ABC-1
# How it was run: as §1
# [10] = test system: NCI-H596
# How it was run: as §1
# [11] = test system: NCI-H2126
# How it was run: as §1
# [12] = test system: 201T
# How it was run: as §1
# [13] = test system: NCI-H3122
# How it was run: as §1
# [14] = test system: LK-2
# How it was run: as §1
# [15] = test system: NCI-H1734
# How it was run: as §1
# [16] = test system: CAL-12T
# How it was run: as §1
# [17] = test system: SK-MES-1
# How it was run: as §1
# [18] = test system: NCI-H2087
# How it was run: as §1
# [19] = test system: NCI-H441
# How it was run: as §1
# [20] = test system: PC-14
# How it was run: as §1
# [21] = test system: ChaGo-K-1
# How it was run: as §1
# [22] = test system: NCI-H647
# How it was run: as §1
# [23] = test system: LXF-289
# How it was run: as §1
smiles,measurement,setting,value
O=C(O)CCCCC(CCSCc1ccccc1)SCc1ccccc1 (stereo not given) [CPI-613] + O=C(c1cc(Cc2n[nH]c(=O)c3ccccc23)ccc1F)N1CCN(C(=O)C2CC2)CC1 [Olaparib] (partner 8 µM),relative viability,[1]; first compound 5 µM,0.703
same,relative viability,[1]; first compound 15.81 µM,0.707
same,relative viability,[1]; first compound 50 µM,0.67
same,relative viability,[1]; first compound 158.11 µM,0.109
same,relative viability,[1]; first compound 500 µM,0.0171
same,relative viability,[2]; first compound 5 µM,0.591
same,relative viability,[2]; first compound 15.81 µM,0.554
same,relative viability,[2]; first compound 50 µM,0.534
same,relative viability,[2]; first compound 158.11 µM,0.403
same,relative viability,[2]; first compound 500 µM,0.18
same,relative viability,[3]; first compound 5 µM,0.91
same,relative viability,[3]; first compound 15.81 µM,0.894
same,relative viability,[3]; first compound 50 µM,0.954
same,relative viability,[3]; first compound 158.11 µM,0.751
same,relative viability,[3]; first compound 500 µM,0.805
same,relative viability,[4]; first compound 5 µM,0.508
same,relative viability,[4]; first compound 15.81 µM,0.432
same,relative viability,[4]; first compound 50 µM,0.484
same,relative viability,[4]; first compound 158.11 µM,0.199
same,relative viability,[4]; first compound 500 µM,0.229
same,relative viability,[5]; first compound 5 µM,0.189
same,relative viability,[5]; first compound 15.81 µM,0.192
same,relative viability,[5]; first compound 50 µM,0.189
same,relative viability,[5]; first compound 158.11 µM,0.198
same,relative viability,[5]; first compound 500 µM,0.175
same,relative viability,[6]; first compound 5 µM,0.539
same,relative viability,[6]; first compound 15.81 µM,0.587
same,relative viability,[6]; first compound 50 µM,0.557
same,relative viability,[6]; first compound 158.11 µM,0.527
same,relative viability,[6]; first compound 500 µM,0.517
same,relative viability,[7]; first compound 5 µM,0.298
same,relative viability,[7]; first compound 15.81 µM,0.471
same,relative viability,[7]; first compound 50 µM,0.368
same,relative viability,[7]; first compound 158.11 µM,0.459
same,relative viability,[7]; first compound 500 µM,0.459
same,relative viability,[8]; first compound 5 µM,0.74
same,relative viability,[8]; first compound 15.81 µM,0.769
same,relative viability,[8]; first compound 50 µM,0.761
same,relative viability,[8]; first compound 158.11 µM,0.594
same,relative viability,[8]; first compound 500 µM,0.106
same,relative viability,[9]; first compound 5 µM,0.816
same,relative viability,[9]; first compound 15.81 µM,0.845
same,relative viability,[9]; first compound 50 µM,0.957
same,relative viability,[9]; first compound 158.11 µM,0.448
same,relative viability,[9]; first compound 500 µM,0.383
same,relative viability,[10]; first compound 5 µM,0.723
same,relative viability,[10]; first compound 15.81 µM,0.723
same,relative viability,[10]; first compound 50 µM,0.633
same,relative viability,[10]; first compound 158.11 µM,0.323
same,relative viability,[10]; first compound 500 µM,0.0561
same,relative viability,[11]; first compound 5 µM,0.904
same,relative viability,[11]; first compound 15.81 µM,1.07
same,relative viability,[11]; first compound 50 µM,0.845
same,relative viability,[11]; first compound 158.11 µM,0.757
same,relative viability,[11]; first compound 500 µM,0.128
same,relative viability,[12]; first compound 5 µM,0.849
same,relative viability,[12]; first compound 15.81 µM,0.788
same,relative viability,[12]; first compound 50 µM,0.776
same,relative viability,[12]; first compound 158.11 µM,0.594
same,relative viability,[12]; first compound 500 µM,0.633
same,relative viability,[13]; first compound 5 µM,0.672
same,relative viability,[13]; first compound 15.81 µM,0.589
same,relative viability,[13]; first compound 50 µM,0.574
same,relative viability,[13]; first compound 158.11 µM,0.442
same,relative viability,[13]; first compound 500 µM,0.609
same,relative viability,[14]; first compound 5 µM,0.714
same,relative viability,[14]; first compound 15.81 µM,0.702
same,relative viability,[14]; first compound 50 µM,0.749
same,relative viability,[14]; first compound 158.11 µM,0.796
same,relative viability,[14]; first compound 500 µM,0.736
same,relative viability,[15]; first compound 5 µM,0.584
same,relative viability,[15]; first compound 15.81 µM,0.596
same,relative viability,[15]; first compound 50 µM,0.516
same,relative viability,[15]; first compound 158.11 µM,0.373
same,relative viability,[15]; first compound 500 µM,0.173
same,relative viability,[16]; first compound 5 µM,0.72
same,relative viability,[16]; first compound 15.81 µM,0.634
same,relative viability,[16]; first compound 50 µM,0.627
same,relative viability,[16]; first compound 158.11 µM,0.473
same,relative viability,[16]; first compound 500 µM,0.488
same,relative viability,[17]; first compound 5 µM,0.641
same,relative viability,[17]; first compound 15.81 µM,0.635
same,relative viability,[17]; first compound 50 µM,0.556
same,relative viability,[17]; first compound 158.11 µM,0.163
same,relative viability,[17]; first compound 500 µM,0.0936
same,relative viability,[18]; first compound 5 µM,0.517
same,relative viability,[18]; first compound 15.81 µM,0.522
same,relative viability,[18]; first compound 50 µM,0.627
same,relative viability,[18]; first compound 158.11 µM,0.0403
same,relative viability,[18]; first compound 500 µM,0.0077
same,relative viability,[19]; first compound 5 µM,0.456
same,relative viability,[19]; first compound 15.81 µM,0.483
same,relative viability,[19]; first compound 50 µM,0.596
same,relative viability,[19]; first compound 158.11 µM,0.109
same,relative viability,[19]; first compound 500 µM,0.0239
same,relative viability,[20]; first compound 5 µM,0.283
same,relative viability,[20]; first compound 15.81 µM,0.231
same,relative viability,[20]; first compound 50 µM,0.262
same,relative viability,[20]; first compound 158.11 µM,0.078
same,relative viability,[20]; first compound 500 µM,0.0073
same,relative viability,[21]; first compound 5 µM,0.4
same,relative viability,[21]; first compound 15.81 µM,0.411
same,relative viability,[21]; first compound 50 µM,0.412
same,relative viability,[21]; first compound 158.11 µM,0.319
same,relative viability,[21]; first compound 500 µM,0.251
same,relative viability,[22]; first compound 5 µM,0.426
same,relative viability,[22]; first compound 15.81 µM,0.528
same,relative viability,[22]; first compound 50 µM,0.331
same,relative viability,[22]; first compound 158.11 µM,0.0348
same,relative viability,[22]; first compound 500 µM,0.0133
same,relative viability,[23]; first compound 5 µM,0.988
same,relative viability,[23]; first compound 15.81 µM,1
same,relative viability,[23]; first compound 50 µM,1
same,relative viability,[23]; first compound 158.11 µM,0.692
same,relative viability,[23]; first compound 500 µM,0.8
